Results from article PMC4912613, “A broad analysis of resistance development in the malaria parasite” (Nature Communications, 2016).
Where two headings read alike, the source gives them in different places.

Key:
[1] = system: P. berghei exoerythrocytic forms; assay: Liver-stage P. berghei hepatocyte invasion and development assay (luminescence, HepG2); format: cell-based, Plasmodium berghei; conditions: for EC50: Plasmodium berghei, HepG2, 48 h, P. berghei sporozoites, read-out: Liver Stage EC50; for EC50 fold shift compared to asexual stage: Liver Stage EC50: liver stage EC50 / 3D7 EC50
Source text: (§1) As drugs that eliminate multiple stages of the parasite lifecycle will be critical components in global efforts to eliminate malaria, we were interested in knowing whether the compounds in our study had additional activities against either the liver and/or transmission stages of the parasite lifecycle. To determine this, we first evaluated the compounds in additional phenotypic assays. The first assay was a P. berghei hepatocyte invasion and development assay, which predicts causal prophylactic activity. Hepatocyte toxicity was additionally tested to identify false-positive activity in the liver stage due to host-cell toxicity. Assays were executed in duplicate using a 12-point EC50 curve at starting concentrations of 5 μM or 50 μM (Supplementary Table 1).
(§2) Liver-stage activity was determined by pretreating hepatic human cells (HepG2) for 2 h with compound in 1,536-well plates infected with freshly dissected P. berghei sporozoites. After 48 h of incubation, the viability of P. berghei exoerythrocytic forms was measured by luminescence reaction light output using BrightGlo (Promega). Varying levels of compound concentration were used (5 μM or 50 μM) due to the stock concentration supplied.

[2] = system: Stage 5 gametocytes from P. falciparum NF54; assay: Late-stage (stage V) gametocyte survival assay, MitoTracker; format: cell-based, Plasmodium falciparum; conditions: for EC50: Plasmodium falciparum, P. falciparum NF54, 72 h, read-out: Stage 5 Gametocyte EC50; for EC50 fold shift compared to asexual stage: Stage 5 Gametocyte EC50: gametocyte EC50 / 3D7 EC50
Description: The second assay was a late-stage (stage V) gametocyte survival assay, which predicts transmission-blocking activity. […] Positive and negative control compounds included puromycin (0.61±0.11 μM) and atovaquone (> 12.50 μM), respectively.
To test sexual-stage activity, compounds were tested against late-stage gametocytes using a MitoTracker fluorescent-based assay. Specifically, synchronized stage V gametocytes were incubated with compound for 72 h. MitoTracker Red CMXRos (Life Technologies) was added to each well (final concentration: 500 nM) together with saponin to lyse the RBCs. Each plate was then imaged with an Operetta High Content Imaging System (Perkin Elmer) for fluorescence (590–640 nm). Varying levels of compound concentration were used (1.25 μM or 12.5 μM) due to the stock concentration supplied.
The gametocytocidal activity was measured using high-content image analysis software (Harmony, Perkin Elmer). The readout was based on number of metabolically active gametocytes per well.

[3] = system: ATQ-R5 (cytb F267V, parent 3D7); assay: Cross-resistance EC50 assay, ATQ-R5; format: cell-based, Plasmodium falciparum; conditions: Plasmodium falciparum, 3D7; SYBR green 72 hour assay; asynchronized parasites; 96-well or 1536-well format; ATQ-R5
Source text: (§3) To evaluate potential overlapping activity against known antimalarial drug targets, we performed dose-response studies with each compound against our assembled set of drug-resistant lines and their corresponding parents, in an asexual blood stage proliferation assay (Table 1). Comparisons were made to the drug-sensitive strain 3D7 when a parent was unavailable (TM90C2A, W2 and Dd2). As laboratories conducted EC50 assays with different strains and protocols, all comparisons were made between assays from the same laboratory and under the same assay conditions. Compounds displaying >5-fold EC50 shifts relative to the parent or sensitive strain were flagged as having potentially non-novel targets. Average fold shifts per strain ranged from 0.82 to 2.34, with a median of 1.23 indicating there was not common resistance to any one resistant clone. No resistance patterns were observed when classifying the compounds based on chemical structure, but this was not surprising given the diversity of compounds chosen. On the other hand, given that these confirmed compounds were derived from larger unconfirmed hit lists to which some filtration criteria may have been applied (for example, elimination of obvious dihydrofolate reductase inhibitors[32]), some[10][11][12][13] pre-existing bias may exist in the set. […]
(§4) Alternatively, a SYBR Green-based proliferation approach was used for the 72-h assay, as previously described. Briefly, a culture of either synchronized or asynchronous parasitized RBCs (0.3% parasitemia and 4% haematocrit) in screening medium (identical to supplemented medium above except no serum was added) was exposed to serial drug dilutions. Plates were incubated at 37 °C and gassed with 93% N2, 4% CO2 and 3% O2 for 72 h. Following incubation, 10 × SYBR Green I (Invitrogen; supplied in 10,000 × concentration) in lysis buffer ([…], 5 mM EDTA, 0.16% Saponin wt per vol and 1.6% Triton X vol per vol) was added to the wells and the plates were incubated overnight at room temperature before plate reading. EC50 assays were repeated three times, taking the average EC50 value from each assay set, and removing any outliers using a single iteration of Grubbs' test, eliminating values with z-scores above the critical z-value (α=0.05). The raw EC50 values for synchronized parasites assayed in a 384-well format are listed in Supplementary Data 4. The raw EC50 values for asynchronous parasites assayed in a 96 or 1536-well format are listed in Supplementary Data 5.
(§5) EC50 values for each strain were compared with those of the corresponding parent strain to determine fold-shift changes and identify resistance. To minimize the cause variance between assays, all comparisons were conducted between strains assayed under identical conditions. A one-way ANOVA followed by a Dunnet's post-test was conducted in GraphPad Prism to identify significant changes between the parent and resistant strain.

HepG2 = assay: Hepatocyte toxicity; format: cell-based, human; conditions: for Hepatocyte Toxicity: HepG2; for EC50 fold shift compared to asexual stage: Hepatocyte Toxicity: hepatocyte toxicity / 3D7 EC50; for Liver Stage / Hepatocyte Toxicity: toxicity fold shift for the liver stage (hepatocyte toxicity vs liver stage EC50)
Source text: as §1, §2

hsp90 (D88Y, parent Dd2) = assay: Cross-resistance EC50 assay, hsp90; format: cell-based; conditions: Plasmodium falciparum; SYBR green 72 hour assay; synchronized parasites; 384-well format; strain HSP90 (Dd2 parent)
Source text: as §3, §4, §5

[4] = system: ATQ-R4 (cytb M133I and L144S, parent 3D7); assay: Cross-resistance EC50 assay, ATQ-R4; format: cell-based, Plasmodium falciparum; conditions: Plasmodium falciparum, 3D7; SYBR green 72 hour assay; asynchronized parasites; 96-well or 1536-well format; ATQ-R4
Source text: as §3, §4, §5

Dd2 = assay: Cross-resistance EC50 assay, Dd2 parent; format: cell-based, Plasmodium falciparum; conditions: Plasmodium falciparum, DD2, 72 h
Source text: Multidrug resistance alleles, including mutations in P. falciparum chloroquine resistance transporter (pfcrt) and P. falciparum multi-drug resistance transporter 1 (pfmdr1) are very common in field isolates. Therefore, we sought to assess the degree to which pre-existing resistance alleles would contribute to a loss of potency for this diverse collection of small molecule compounds. Fifteen clones derived from three main parent lines were chosen to maximize diversity in mutated pathways and genetic backgrounds, thus representing the variety of resistance seen in the field: 3D7 (ref. [23]), W2 (ref. [24]) or Dd2 (ref. [25]). The 3D7 line originates from the clone of a Netherlands clinical isolate strain[23][26] and is generally considered to be drug sensitive, though it does convey resistance to sulfadoxine. Conversely, W2 (ref. [24], [27]) and Dd2 (ref. [25]) are multi-drug-resistant lines originating from the Indochina III/CDC isolate, which contain point mutations in pfcrt as well as amplifications in pfmdr1 and GTP cyclohydrolase.
as §3, §4, §5

[5] = system: CYTb-G131S (cytb G131S, parent Dd2); assay: Cross-resistance EC50 assay, CYTb-G131S; format: cell-based, Plasmodium falciparum; conditions: Plasmodium falciparum; SYBR green 72 hour assay; synchronized parasites; 384-well format; strain CYTb:G131S (Dd2 parent)
Source text: as §3, §4, §5

[6] = read-out: Dd2 (PARENT) Average EC50
[7] = read-out: Dd2 (PARENT) EC50 (µM) Average EC50

`CC(NCc1ccccc1)c1cc(Cl)ccc1O` (centres unmarked) [MMV665789] was tested, and the EC50 [1] was greater than 5000 nM, the “EC50 fold shift compared to asexual stage: Liver Stage EC50” value (“EC50 fold shift … Liver Stage EC50” below) [1] was greater than 4 and the EC50 [2] was greater than 1250 nM. For the same molecule, the “EC50 fold shift compared to asexual stage: Stage 5 Gametocyte EC50” value (“EC50 fold shift … Stage 5 Gametocyte EC50” below) [2] was greater than 1, the EC50 [3] was 0.29 µM and the “Hepatocyte Toxicity” value (HepG2) was greater than 5 µM. For the same molecule, the “EC50 fold shift compared to asexual stage: Hepatocyte Toxicity” value (shortened to “EC50 fold shift … Hepatocyte Toxicity”) (HepG2) was greater than 4, the EC50 (hsp90 (D88Y, parent Dd2)) was 557 nM and the EC50 [4] was 0.41 µM. It also gave an EC50 (Dd2; [6]) of 0.482 µM, an EC50 (Dd2; [7]) of 0.333 µM and an EC50 [5] of 922 nM.
For `COc1cc2cc(C(=O)Nc3ccccc3)c(N)nc2cc1OC` [MMV006767], the EC50 [1] was greater than 50000 nM, the EC50 [2] was greater than 12500 nM and the EC50 [3] was 2.87 µM. For the same molecule, the “Hepatocyte Toxicity” value (HepG2) was greater than 50 µM, the EC50 (hsp90 (D88Y, parent Dd2)) was 3100 nM and the EC50 [4] was 2.73 µM. It also gave an EC50 (Dd2; [6]) of 1.6 µM, an EC50 (Dd2; [7]) of 0.215 µM and an EC50 [5] of 1800 nM.
`COc1ccc(N2CCN(C(CNC(=O)C3CCCCC3)c3ccc4c(c3)OCO4)CC2)cc1` (centres unmarked) [MMV019662] was tested, and the EC50 [1] was 18900 nM, the “EC50 fold shift … Liver Stage EC50” value [1] was 55.47 and the EC50 [2] was 3680 nM. For the same molecule, the “EC50 fold shift … Stage 5 Gametocyte EC50” value [2] was 10.82, the EC50 [3] was 0.596 µM and the “Hepatocyte Toxicity” value (HepG2) was greater than 50 µM. The “EC50 fold shift … Hepatocyte Toxicity” value (HepG2) was greater than 147, the “Liver Stage / Hepatocyte Toxicity” value (HepG2) was greater than 2.65 and the EC50 (hsp90 (D88Y, parent Dd2)) was 790 nM. It also gave an EC50 [4] of 0.716 µM, an EC50 (Dd2; [6]) of 0.357 µM and an EC50 (Dd2; [7]) of 0.242 µM. It also gave an EC50 [5] of 583 nM.
With `CN1CCN(c2ccc(Nc3c4ccccc4nc4ccccc34)cc2)CC1` [MMV006172] the EC50 [1] was 2060 nM, the EC50 [2] was 919 nM and the EC50 [3] was 0.181 µM. The “Hepatocyte Toxicity” value (HepG2) was 4.554 µM, the “Liver Stage / Hepatocyte Toxicity” value (HepG2) was 2.21 and the EC50 (hsp90 (D88Y, parent Dd2)) was 139 nM. The EC50 [4] was 0.217 µM, the EC50 (Dd2; [6]) was 0.168 µM and the EC50 (Dd2; [7]) was 0.298 µM. It also gave an EC50 [5] of 171 nM.
For `CCC(C)NCC(O)(c1ccc(Cl)cc1)c1ccc(Cl)cc1` (centres unmarked) [MMV665928], the EC50 [1] was greater than 5000 nM, the “EC50 fold shift … Liver Stage EC50” value [1] was greater than 10 and the EC50 [2] was greater than 1250 nM. For the same molecule, the “EC50 fold shift … Stage 5 Gametocyte EC50” value [2] was greater than 2.5, the EC50 [3] was 0.074 µM and the “Hepatocyte Toxicity” value (HepG2) was greater than 5 µM. For the same molecule, the “EC50 fold shift … Hepatocyte Toxicity” value (HepG2) was greater than 10, the EC50 (hsp90 (D88Y, parent Dd2)) was 501 nM and the EC50 [4] was 0.09 µM. It also gave an EC50 (Dd2; [6]) of 0.427 µM, an EC50 (Dd2; [7]) of 0.331 µM and an EC50 [5] of 669 nM.
